Data published in patent publication US20020039780A1, “Salicyclic acid inducible genes and promoters” (priority 1998, published 2002).

What was measured:
Type in all cases: cell-based
G3-2 = assay: Northern analysis of mRNA accumulation in cultured tobacco cells
Experimental: FIG. 1. Four classes of SA-induced early genes. Northern analysis of genes identified by differential display. Gel-purified DNA fragments produced by ddPCR were either used directly for random-primed labeling and probing of Northern filters (e.g. C7-1, C6-1, and G9-2) or first subcloned and released by restriction digest. Each lane contains 1 μg of poly(A) mRNA from cultured tobacco cells treated with (1) H2O, 4 hr; (2) 200 μM SA, 4 hr; (3) 71 μM CHX, 5 hr; (4) 71 μM CHX, 5 hr plus 200 μM SA after 1 hr (4 hr total); (5) 20 μM SA, 2 hr; (7) 200 μM SA, 8 hr. One blot was sequentially hybridized with the G1-1 fragment and the β-ATPase gene as a loading control probe. response classes (I-IV) are indicated on the left of the autoradiograms.
(§1) FIG. 2. Time course of SA-induced gene expression. Northern analysis of representative differential display genes following treatment of cultured tobacco cells with SA for the indicated time (in hours, except lanes 2-4, which refer to 10, 20, and 30 min.). Twenty micrograms of total RNA was loaded per lane. Blots were hybridized with ddPCR fragments indicated at right or with the β-ATPase gene as a loading control probe. Autoradiogram exposure times were optimized for each gene. The signal for C18-1 was enhanced by using the full length cDNA as probe. Labels on left indicate response class.
(§2) FIG. 4. Specificity of induction among SA analogs and other signalling compounds. Northern analysis of representative differential display genes following treatment of tobacco cells with 100 μM or 1 mM (left and right side of triangles, respectively) of the following chemicals for 2-2.5 hr: salicylic acid (SA, lanes 4 and 5), acetylSA (ASA, lanes 6 and 7), benzoic acid (BA, lanes 8 and 9), 4-hydroxybenzoic (4HBA, lanes 10 and 11), thiamine (thia, lanes 12 and 13), methyljasmonate (MJ, lanes 14 and 15), abscisic acid (ABA, lanes 16 and 17), or 2,4-dichlorophenoxyacetic acid (2,4-D, lanes 18 and 19). Control treatments are H2O (H, lane 1), 1% ethanol (E, solvent concentration in MJ treatments, lane 2), or 1% DMSO (D, solvent concentration in 2,4D treatments, lane 3). Blots were hybridized with ddPCR fragments indicated at right or with the β-ATPase geneas a loading control probe. Autoradiogram exposure times were optimized for each gene. The signal for C18-1 was enhanced by using the full length cDNA as probe. Labels on left indicate response class.
(§3) Differential display technology (Liang, P. and Pardee, A. B., Science 257: 967-971, 1992) was used to identify genes activated in the presence of SA, CHX and both. Therefore the absence or presence of SA, induction at 3 timepoints of SA-treatment, 2 different concentrations of SA and the effect of addition of CHX were measured. Seven treatments in total were performed. Treatment of tobacco BY-2 suspension cells and leaves and differential display PCR reactions were performed as described (Horvath and Chua (1996), Plant Mol. Biol. 31, 1061-1072).
(§4) The specificity for induction by SA was tested by treating tobacco cells with a range of SA analogs and plant signalling compounds at 0.1 and 1 mM for approximately 2.5 h. […] Among the SA-analogs, acetyl-SA (ASA, aspirin), benzoic acid (BA) and 4-hydroxybenzoic acid (4HBA), responses generally reflected the ability of the analog to substitute for SA in other cellular responses (Yalpani, N. et al., Plant Cell 3: 809-818, 1991, Yang, Y. and Klessig, D. F., Proc. Natl. Acad. Sci. 93, 14972-14977, 1996). […] Several genes, including those for proteinase inhibitors and lipoxygenase (Hildmann, T. et al., Plant Cell 4: 1157-1170, 1992; Melan, M. A. et al., Plant Physiol. 101: 441-450, 1993; Xu, D. et al., Plant Mol. Biol. 22: 573-588, 1993) are known to be under dual regulation by MJ and ABA. A similar mode of regulation may be in effect with C14-1b. the auxin 2,4-D induced several genes including C18-1/EREBP1 and C6-2.

C6-2 = assay: as above
Experimental: as §1, §2, §3, §4

C14-1b = assay: as above
Experimental: as §1, §2, §3, §4

IEGT-Luc2 lines = assay: Promoter-luciferase reporter activity in leaves of transgenic tobacco; settings: leaf halves infiltrated with 1 mM SA or water for 4-12 hours; all ten lines
Experimental: (§5) FIG. 8. A. Schematic representation of the set-up of the experiment investigating SA-inducible gene expression in plants carrying a promoter-luciferase reporter construct. Parts of the leaves of transgenic plants are harvested, split and one half treated by infiltration by SA. The other half is treated with water. Then both halves are sprayed with luciferin solution and tested for luminescence. B. Results of the experiment using leaves of tobacco transgenic for the IEGT/G1-1 promoter-luciferase reporter construct. On the picture, the lefthand side of the leave was infiltrated with SA, the right hand side infiltrated with water. Increased luminescence is indicated by the lighter colors.
(§6) Amplified fragments were digested with BamHI and HindIII and subcloned into BamHI and HindIII-digested vector VIP11•-FFLuc (Anderson et al., 1994, Plant J. 4, 457-470) containing the firefly luciferase gene. This vector positions the promoter sequences directly upstream the promoterless FFLuc gene. […]
(§7) Leaves of primary transformants or S1 progeny were tested for reporter gene activity by excising halves of the leaves, splitting and infiltration with either water or 1 mM SA for 4-12 hours. Leaves were then sprayed with the reporter substrate luciferin (1 mM luciferin with 0.1% Triton X-100 in water) and the luminescence counted by video-imaging and quantitation equipment (schematically shown in FIG. 8A).

IEGT-Luc1 lines = assay: as above; settings: leaf halves infiltrated with 1 mM SA for 4-12 hours; six out of ten lines
Experimental: as §5, §6, §7

C18-1/EREBP1 = assay: Northern analysis of mRNA accumulation in cultured tobacco cells; settings: SA time course, full length cDNA probe
[1] = 0.1 and 1 mM, approximately 2.5 h

O=C(O)c1ccccc1O [SA, salicylic acid]
G3-2 mRNA levels at 20 μM SA (G3-2; 20 μM SA): comparable to those at 200 μM | G3-2 induction at 0.1 mM versus 1 mM (G3-2; [1]): equal or greater induction at 0.1 mM versus 1 mM | G3-2 mRNA levels between 2 and 12 h (G3-2; SA time course): increased steadily | time before which G3-2 is not detectably activated (G3-2; SA time course): ≥ 2 h | sensitivity of G3-2 to SA (G3-2; data not shown): similarly sensitive as G8-1 | C6-2 induction at 0.1 mM versus 1 mM (C6-2; [1]): greater induction at 1mM | time at which C6-2 induction is apparent (C6-2; SA time course): ≤ 10 min | time of peak C6-2 mRNA (C6-2; SA time course): approximately 1.5 h | time of reduction of C6-2 mRNA to background levels (C6-2; SA time course): ≤ 4 h | induction of C14-1b (C14-1b; [1]): did not reveal response | time at which C14-1b induction is apparent (C14-1b; SA time course): 2 to 2.5 h | time of peak C14-1b expression (C14-1b; SA time course): 5 h | luciferase activity (IEGT-Luc2 lines): only baseline activity | SA-induced luciferase expression over controls (IEGT-Luc1 lines): 2.3-6 fold | time at which increase in C18-1/EREBP1 mRNA is first apparent (C18-1/EREBP1): 10 min
